Test results published in patent US8461150B2, “Chalcone linked pyrrolo[2,1-c][1, 4]benzodiazepine hybrids as potential anticancer agents and process for the preparation thereof” (Council of Scientific & Industrial Research, priority 2008, dated 2013).

Experiments:
[1] = tested on: human tumour cell lines; test: In vitro cytotoxicity, mean graph midpoints (MG_MID) over human tumour cell lines; type: cell-based; conditions: for Log10LC50 mean graph midpoint (MG_MID): 50% cell death; for Log10LC50 mean graph midpoint (MG_MID) / Log10GI50 mean graph midpoint (MG_MID) / Log10TGI mean graph midpoint (MG_MID): human tumour cell lines, 48 h exposure, SRB; for cytotoxicity against some cancer cell lines: in words, refers to Table 3; for Log10TGI mean graph midpoint (MG_MID): total cell growth inhibition
Method: (§1) Biological Activity: The in vitro cell line studies were carried out at the National Cancer Institute, Maryland, USA.
(§2) 6b, 6c, 6g, 10a and 10b were evaluated for in vitro anticancer activity against sixty human tumour cells derived from nine cancer types (leukemia, non-small-cell lung, colon, CNS, melanoma, ovarian, prostate, renal and breast cancer) as shown in (Table 1 and 2). For the compound, dose response curves for each cell line were measured at a minimum of five concentrations at 10 fold dilutions. A protocol of 48 h continuous drug exposure was used and a sulforhodamine B (SRB) protein assay was used to estimate cell viability or growth. The concentration causing 50% cell growth inhibition (GI50), total cell growth inhibition (TGI 0% growth) and 50% cell death (LC50, −50% growth) compared with the control was calculated.

[2] = tested on: 786-0 (Renal); test: Cytotoxicity in selected cancer cell lines (SRB, 48 h); type: cell-based, human
Method: as §1, §2
(§3) Each cancer type represents the average of six to nine different cancer cell lines. In vitro evaluation of cytotoxic activity. The compound 6b, 6c, 6g 10a and 10b were evaluated for in vitro anticancer activity against nine human tumour cells derived from six cancer types (leukemia, colon, prostate, melanoma, ovarian, lung, cervix and breast cancer) as shown in Table 3. […] Compounds 6b, 6c, 6g, 10a and 10b have been evaluated for their in vitro cytotoxicity in selected human cancer cell lines of colon (Colo205), lung (NCI-H522, NCI-H226), colon (colo-205), prostate (DU145, PC3), ovarian (IGROV1, HT1080), and breast (MDA-MB-435, Zr-75-1), melanoma (LOXMIVI, VACC-62, SK-MEL-5) origin. A protocol of 48 h continuous drug exposure has been used and an […] has been used to estimate cell viability or growth. The results are expressed as percent of cell growth determined relative to that of untreated control cells

[3] = tested on: A498 (Renal); test: as above; type: cell-based, human
Method: as §1, §2, §3

[4] = tested on: ACHN (Renal); test: as above; type: cell-based, human
Method: as §1, §2, §3

[5] = tested on: CAKI-1 (Renal); test: as above; type: cell-based, human
Method: as §1, §2, §3

[6] = tested on: CCRF-CEM (Leukemia); test: as above; type: cell-based, human
Method: as §1, §2, §3

[7] = tested on: HCT-116 (Colon); test: as above; type: cell-based, human
Method: as §1, §2, §3

[8] = tested on: HCT-15 (Colon); test: as above; type: cell-based, human
Method: as §1, §2, §3

[9] = tested on: HL-60(TB) (Leukemia); test: as above; type: cell-based, human
Method: as §1, §2, §3

[10] = tested on: LOX IMVI (Melanoma); test: as above; type: cell-based, human
Method: as §1, §2, §3

[11] = tested on: M14 (Melanoma); test: as above; type: cell-based, human
Method: as §1, §2, §3

[12] = tested on: MALME-3M (Melanoma); test: as above; type: cell-based, human
Method: as §1, §2, §3

[13] = tested on: MDA-MB-231/ATCC (Breast); test: as above; type: cell-based, human
Method: as §1, §2, §3

[14] = tested on: NCI-H226 (Non-small cell lung); test: as above; type: cell-based, human
Method: as §1, §2, §3

[15] = tested on: NCI-H23 (Non-small cell lung); test: as above; type: cell-based, human
Method: as §1, §2, §3

[16] = tested on: NCI-H522 (Non-small cell lung); test: as above; type: cell-based, human
Method: as §1, §2, §3

[17] = tested on: NCI/ADR-RES (Breast); test: as above; type: cell-based, human
Method: as §1, §2, §3

[18] = tested on: OVCAR-3 (Ovarian); test: as above; type: cell-based, human
Method: as §1, §2, §3

[19] = tested on: RPMI-8226 (Leukemia); test: as above; type: cell-based, human
Method: as §1, §2, §3

[20] = tested on: SF-539 (CNS); test: as above; type: cell-based, human
Method: as §1, §2, §3

[21] = tested on: SK-MEL-5 (Melanoma); test: as above; type: cell-based, human
Method: as §1, §2, §3

[22] = tested on: SW-620 (Colon); test: as above; type: cell-based, human
Method: as §1, §2, §3

[23] = tested on: TK-10 (Renal); test: as above; type: cell-based, human
Method: as §1, §2, §3

[24] = tested on: U251 (CNS); test: as above; type: cell-based, human
Method: as §1, §2, §3

[25] = tested on: UACC-257 (Melanoma); test: as above; type: cell-based, human
Method: as §1, §2, §3

[26] = tested on: UACC-62 (Melanoma); test: as above; type: cell-based, human
Method: as §1, §2, §3

[27] = tested on: UO-31 (Renal); test: as above; type: cell-based, human
Method: as §1, §2, §3

[28] = tested on: duplex-form calf thymus DNA (CT-DNA); test: Thermal denaturation studies with calf thymus DNA; type: binding; conditions: [PBD]:[DNA] molar ratio 1:5, CT-DNA 100 μM, ligand 20 μM, pH 7.00; for ΔTμ (° C.) after incubation at 37 °C. for 0 h: 0 h incubation; for ΔTμ (° C.) after incubation at 37 °C. for 18 h: 18 h incubation
Method: These compounds have also been subjected to thermal denaturation studies with duplex-form calf thymus DNA (CT-DNA) using an modification of a reported procedure. Working solutions in aqueous buffer (10 mM NaH2PO4/Na2HPO4, 1 mM Na2EDTA, pH 7.00+0.01) containing CT-DNA (100 μm in phosphate) and the PBD (20 μm) have been prepared by addition of concentrated PBD solutions in DMSO to obtain a fixed [PBD]/[DNA] molar ratio of 1:5. The DNA-PBD solutions have been incubated at 37° C. for 0 and 18 h prior to analysis. Samples have been monitored at 260 nm using a Beckman DU-800 spectrophotometer fitted with high performance temperature controller, and heated at 1° C. min^−1 in the 40-110° C. range. DNA helix→coil transition temperatures (Tm) have been obtained from the maxima in the d(A260)/d T derivative plots. Drug-induced alterations in DNA melting behavior are given by: ΔTm=Tm(DNA+PBD)−Tm(DNA alone), where the Tm value for the PBD-free CT-DNA is 68.5±0.01.

SMILES | Log10LC50 mean graph midpoint (MG_MID) [1] | Log10GI50 mean graph midpoint (MG_MID) [1] | cytotoxicity against some cancer cell lines [1] | Log10TGI mean graph midpoint (MG_MID) [1] | GI50 [2] [µM] | GI50 [3] [µM] | GI50 [4] [µM] | GI50 [5] [µM] | GI50 [6] [µM] | GI50 [7] [µM] | GI50 [8] [µM] | GI50 [9] [µM] | GI50 [10] [µM] | GI50 [11] [µM] | GI50 [12] [µM] | GI50 [13] [µM] | GI50 [14] [µM] | GI50 [15] [µM] | GI50 [16] [µM] | GI50 [17] [µM] | also measured
COc1cc(C=CC(=O)c2ccc(F)cc2)ccc1OCCCCCOc1cc2c(cc1OC)C(=O)N1CCC[C@H]1C=N2 [6c, 7-Methoxy-8-{5-[1-(4-fluorophenyl)-3-(4-hydroxy-3-methoxyphenyl)-2-propen-1-one]pentyl}-oxy-(11aS)-1,2,3,11a-5H-pyrrolo[2,1-c][1,4]benzodiazepin-5-one] | −4.61 | −6.86 | promising cytotoxicity | −6.79 | 18.4 | 20.1 | 42 | 15.8 | 25.1 | 21 | 29.3 | 28.2 | 18.2 | 14.5 | 24.2 | 19.9 | 16.5 | 15.8 | 65.3 | 17.4 | GI50 [18]: 34.3 µM; GI50 [19]: 16.4 µM; GI50 [20]: 30.3 µM; GI50 [21]: 20.9 µM; GI50 [22]: 18.8 µM; GI50 [23]: 38.2 µM; GI50 [24]: 15.2 µM; GI50 [25]: 22.9 µM; GI50 [26]: 15.1 µM; GI50 [27]: 21.1 µM; ΔTμ (° C.) after incubation at 37 °C. for 0 h [28]: 2.4 °C; ΔTμ (° C.) after incubation at 37 °C. for 18 h [28]: 2.9 °C
COc1cc(C=CC(=O)c2c(C)nc3ccccc3c2C)ccc1OCCCOc1cc2c(cc1OC)C(=O)N1CCC[C@H]1C=N2 [10a, 7-Methoxy-8-{3-[3-(4-hydroxy-3-methoxyphenyl)-1-(2,4-dimethyl-3-quinolyl)-2-propen-1-one]propyl}-oxy-(11aS)-1,2,3,11a-5H-pyrrolo[2,1-c][1,4]benzodiazepin-5-one] | −4.43 | −6.94 | promising cytotoxicity | −6.90 | 17.3 | 20.1 | 32 | 15.8 | 12.5 | 21 | 29.7 | 25.2 | 18.2 | 14.5 | 24.2 | 19.9 | 10.8 | 24.1 | 10.8 | 17.6 | GI50 [18]: 24.9 µM; GI50 [19]: 15 µM; GI50 [20]: 30.3 µM; GI50 [21]: 20.9 µM; GI50 [22]: 26.6 µM; GI50 [23]: 33.2 µM; GI50 [24]: 19.8 µM; GI50 [25]: 22.9 µM; GI50 [26]: 15.1 µM; GI50 [27]: 21.6 µM; ΔTμ (° C.) after incubation at 37 °C. for 0 h [28]: 4.0 °C; ΔTμ (° C.) after incubation at 37 °C. for 18 h [28]: 4.6 °C
COc1cc(C=CC(=O)c2c(C)nc3ccccc3c2C)ccc1OCCCCOc1cc2c(cc1OC)C(=O)N1CCC[C@H]1C=N2 [10b, 7-Methoxy-8-{4-[3-(4-hydroxy-3-methoxyphenyl)-1-(2,4-dimethyl-3-quinolyl)-2-propen-1-one]butyl}-oxy-(11aS)-1,2,3,11a-5H-pyrrolo[2,1-c][1,4]benzodiazepin-5-one] | −4.46 | −6.86 | promising cytotoxicity | −6.94 | 14.9 | 19.5 | 36.1 | 12.9 | 13.4 | 14.6 | 18.4 | 24.5 | 15 | 18.8 | 36.2 | 14.2 | 10.1 | 19.5 | 9 | 16.9 | GI50 [18]: 26.3 µM; GI50 [19]: 13.8 µM; GI50 [20]: 33.7 µM; GI50 [21]: 23.3 µM; GI50 [22]: 25.9 µM; GI50 [23]: 31.4 µM; GI50 [24]: 15.7 µM; GI50 [25]: 15.9 µM; GI50 [26]: 22.5 µM; GI50 [27]: 15.2 µM; ΔTμ (° C.) after incubation at 37 °C. for 0 h [28]: 4.3 °C; ΔTμ (° C.) after incubation at 37 °C. for 18 h [28]: 4.9 °C
